Data taken from PMC2577671, “Evaluation of Dimebon in cellular model of Huntington's disease” (Molecular Neurodegeneration, 2008).

Experiments:
[1] = molecular target: T1, α1A-Adrenergic receptor (Rattus norvegicus, UniProt P43140); assay: MDS Pharma Services binding screen at […]
T1 construct: gene Adra1a

[2] = molecular target: T2, α1B-Adrenergic receptor (Rattus norvegicus, UniProt P15823); assay: biochemical; design: MDS Pharma Lead Profiling screen, binding assays, per cent inhibition, duplicate
T2 construct: gene Adra1b
T2 sequence (P15823 whole entry): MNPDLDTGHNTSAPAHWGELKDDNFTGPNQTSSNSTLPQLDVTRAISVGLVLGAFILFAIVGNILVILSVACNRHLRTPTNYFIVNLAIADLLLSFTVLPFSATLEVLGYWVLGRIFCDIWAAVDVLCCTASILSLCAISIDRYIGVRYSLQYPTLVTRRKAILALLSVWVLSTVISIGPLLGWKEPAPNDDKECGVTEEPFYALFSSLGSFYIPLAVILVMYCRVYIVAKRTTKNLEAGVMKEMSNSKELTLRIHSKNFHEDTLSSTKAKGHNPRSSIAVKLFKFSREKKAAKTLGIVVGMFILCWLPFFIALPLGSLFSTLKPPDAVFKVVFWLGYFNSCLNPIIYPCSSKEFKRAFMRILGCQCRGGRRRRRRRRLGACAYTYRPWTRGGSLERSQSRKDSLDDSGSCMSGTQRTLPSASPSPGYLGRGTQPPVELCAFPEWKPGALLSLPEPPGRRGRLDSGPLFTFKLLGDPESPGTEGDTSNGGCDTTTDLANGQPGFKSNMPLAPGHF
Experimental: (§1) The activity of Dimebon against selected set of biochemical targets was performed by MDS Pharma Services . The Dimebon was provided to MDS Pharma as dry powder, dissolved in DMSO and tested in 10 μM concentrations. The standard Lead Profiling + CYP450 screen was performed according to MDS Pharma specifications with additional custom-chosen targets added to the screen as indicated. To further understand potential mechanisms responsible for clinical effects of Dimebon, we evaluated Dimebon against a set of selected biochemical targets. Dimebon evaluation was performed by MDS Pharma Services . The standard Lead Profiling + CYP450 screen was performed with additional custom-selected targets added to the screen. The results of the screen obtained at 10 μM of Dimebon are provided as Additional File 3. […] Low affinity (50–60% inhibition) interactions were also observed for CYP450, 2C19 receptor, voltage-gated L-type Ca^2+ channel, Dopamine D4.2 receptor, and Serotonin 5-HT1 receptor. […] Supplementary file 1750-1326-3-15-S3.pdf: Additional file 3 The results of Dimebon screening against a selected set of biochemical targets. The complete results obtained by MDS Pharma with a selected list of biochemical targets using 10 μM of Dimebon as a probe. The Cat numbers refer to the MDS Pharma Services assay specification. The receptors and species are listed. Dimebon was tested at 10 μM concentratio in duplicate. The % inhibition by Dimebon is shown numerically and graphically for each receptor. Significant targets (defined as % inhibition > 50%) are highlighted in yellow. Click here for file

[3] = molecular target: T3, Serotonin 5-HT2B (Homo sapiens, UniProt P41595); assay: biochemical; design: MDS Pharma Lead Profiling screen, binding assays, per cent inhibition, duplicate
T3 construct: gene HTR2B
Experimental: as §1

[4] = molecular target: T4, Adrenergic beta1 (Homo sapiens, UniProt P08588); assay: biochemical; design: MDS Pharma Lead Profiling screen, binding assays, per cent inhibition, duplicate
T4 construct: gene ADRB1
Experimental: as §1

[5] = molecular target: T5, GABAB1A (Homo sapiens, UniProt Q9UBS5); assay: biochemical; design: MDS Pharma Lead Profiling screen, binding assays, per cent inhibition, duplicate
T5 construct: gene GABBR1; isoform 1A
Experimental: as §1

[6] = molecular target: T6, Neuropeptide Y Y2 (Homo sapiens, UniProt P49146); assay: biochemical; design: MDS Pharma Lead Profiling screen, binding assays, per cent inhibition, duplicate
T6 construct: gene NPY2R
Experimental: as §1

[7] = molecular target: T7, Transporter, Norepinephrine (NET) (Homo sapiens, UniProt P23975); assay: biochemical; design: MDS Pharma Lead Profiling screen, binding assays, per cent inhibition, duplicate
T7 construct: gene SLC6A2
T7 sequence (P23975 whole entry): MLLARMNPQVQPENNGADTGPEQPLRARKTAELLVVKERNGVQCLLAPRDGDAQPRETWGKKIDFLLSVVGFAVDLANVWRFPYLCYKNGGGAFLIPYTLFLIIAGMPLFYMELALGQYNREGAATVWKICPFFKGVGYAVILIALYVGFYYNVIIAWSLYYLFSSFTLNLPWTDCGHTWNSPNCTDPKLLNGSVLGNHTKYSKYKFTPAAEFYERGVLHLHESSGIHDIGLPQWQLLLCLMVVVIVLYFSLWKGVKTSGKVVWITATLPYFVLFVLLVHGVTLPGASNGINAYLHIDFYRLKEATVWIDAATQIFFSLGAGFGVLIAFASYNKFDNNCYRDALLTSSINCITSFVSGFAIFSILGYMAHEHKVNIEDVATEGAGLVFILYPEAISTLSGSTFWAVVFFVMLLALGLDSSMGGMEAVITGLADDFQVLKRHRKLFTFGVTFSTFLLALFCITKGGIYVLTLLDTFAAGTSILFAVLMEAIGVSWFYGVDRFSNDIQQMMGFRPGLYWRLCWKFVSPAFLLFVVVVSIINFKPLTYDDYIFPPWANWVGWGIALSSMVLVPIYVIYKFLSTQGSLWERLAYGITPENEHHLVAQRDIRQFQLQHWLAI
Experimental: as §1

[8] = molecular target: T8, Serotonin 5-HT2c receptor (Homo sapiens, UniProt P28335); assay: biochemical; design: MDS Pharma Lead Profiling screen, binding assays, per cent inhibition, duplicate
T8 construct: gene HTR2C
T8 sequence (P28335 33-458): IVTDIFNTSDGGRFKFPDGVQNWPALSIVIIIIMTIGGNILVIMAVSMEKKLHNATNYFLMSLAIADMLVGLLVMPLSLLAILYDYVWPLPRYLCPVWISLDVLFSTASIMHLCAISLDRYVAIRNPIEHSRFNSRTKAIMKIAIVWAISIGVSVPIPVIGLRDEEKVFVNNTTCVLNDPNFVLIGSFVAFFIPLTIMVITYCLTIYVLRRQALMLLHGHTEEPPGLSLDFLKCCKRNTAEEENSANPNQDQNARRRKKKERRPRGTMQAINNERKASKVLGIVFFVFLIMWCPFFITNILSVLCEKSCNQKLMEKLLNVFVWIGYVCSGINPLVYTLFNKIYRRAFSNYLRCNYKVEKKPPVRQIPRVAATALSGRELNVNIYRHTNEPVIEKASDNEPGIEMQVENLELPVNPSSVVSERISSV
Experimental: as §1

[9] = molecular target: T1, α1A-Adrenergic receptor; assay: biochemical; design: MDS Pharma Lead Profiling screen, binding assays, per cent inhibition, duplicate
Experimental: as §1

[10] = molecular target: T9, Sigma 2 (Rattus norvegicus, UniProt Q5U3Y7); assay: biochemical; design: MDS Pharma Lead Profiling screen, binding assays, per cent inhibition, duplicate
T9 construct: gene Tmem97
T9 sequence (Q5U3Y7 whole entry): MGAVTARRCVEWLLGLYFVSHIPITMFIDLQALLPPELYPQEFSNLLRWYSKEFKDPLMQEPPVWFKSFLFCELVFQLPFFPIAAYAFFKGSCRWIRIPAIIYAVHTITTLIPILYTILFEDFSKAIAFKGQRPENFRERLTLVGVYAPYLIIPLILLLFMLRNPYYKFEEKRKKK
Experimental: as §1

[11] = molecular target: T10, Serotonin 5-HT3 (Homo sapiens, UniProt P46098); assay: biochemical; design: MDS Pharma Lead Profiling screen, binding assays, per cent inhibition, duplicate
T10 construct: gene HTR3A
T10 sequence (P46098 whole entry): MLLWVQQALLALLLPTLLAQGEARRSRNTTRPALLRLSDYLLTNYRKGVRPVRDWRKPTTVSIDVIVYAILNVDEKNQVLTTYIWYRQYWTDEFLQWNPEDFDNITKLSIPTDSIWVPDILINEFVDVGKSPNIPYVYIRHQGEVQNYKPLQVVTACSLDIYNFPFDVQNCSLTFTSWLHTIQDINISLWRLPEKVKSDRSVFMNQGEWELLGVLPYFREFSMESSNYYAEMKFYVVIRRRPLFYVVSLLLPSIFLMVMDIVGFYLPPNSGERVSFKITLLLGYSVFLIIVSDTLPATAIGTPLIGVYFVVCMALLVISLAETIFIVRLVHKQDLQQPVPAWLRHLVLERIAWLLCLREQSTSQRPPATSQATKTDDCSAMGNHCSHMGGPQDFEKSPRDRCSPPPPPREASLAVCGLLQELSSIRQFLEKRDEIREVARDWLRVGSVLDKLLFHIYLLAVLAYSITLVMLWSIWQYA
Experimental: as §1

[12] = molecular target: T11, Muscarinic M2 (Homo sapiens, UniProt P08172); assay: biochemical; design: MDS Pharma Lead Profiling screen, binding assays, per cent inhibition, duplicate
T11 construct: gene CHRM2
T11 sequence (P08172 whole entry): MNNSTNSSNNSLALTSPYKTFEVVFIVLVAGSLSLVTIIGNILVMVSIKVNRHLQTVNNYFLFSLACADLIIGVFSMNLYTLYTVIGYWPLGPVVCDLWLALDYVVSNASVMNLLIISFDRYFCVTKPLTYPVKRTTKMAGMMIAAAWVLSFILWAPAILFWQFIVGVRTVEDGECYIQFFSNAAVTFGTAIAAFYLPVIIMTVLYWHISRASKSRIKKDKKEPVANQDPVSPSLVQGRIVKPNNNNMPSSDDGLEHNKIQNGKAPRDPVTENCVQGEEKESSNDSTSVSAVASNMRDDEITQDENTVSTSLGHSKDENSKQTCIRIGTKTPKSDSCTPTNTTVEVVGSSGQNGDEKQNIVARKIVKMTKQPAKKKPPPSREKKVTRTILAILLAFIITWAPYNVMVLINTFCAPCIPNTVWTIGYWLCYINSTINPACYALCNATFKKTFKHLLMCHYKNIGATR
Experimental: as §1

[13] = molecular target: T12, Histamine H1 receptor (Homo sapiens, UniProt P35367); assay: biochemical; design: MDS Pharma Lead Profiling screen, binding assays, per cent inhibition, duplicate
T12 construct: gene HRH1
T12 sequence (P35367 whole entry): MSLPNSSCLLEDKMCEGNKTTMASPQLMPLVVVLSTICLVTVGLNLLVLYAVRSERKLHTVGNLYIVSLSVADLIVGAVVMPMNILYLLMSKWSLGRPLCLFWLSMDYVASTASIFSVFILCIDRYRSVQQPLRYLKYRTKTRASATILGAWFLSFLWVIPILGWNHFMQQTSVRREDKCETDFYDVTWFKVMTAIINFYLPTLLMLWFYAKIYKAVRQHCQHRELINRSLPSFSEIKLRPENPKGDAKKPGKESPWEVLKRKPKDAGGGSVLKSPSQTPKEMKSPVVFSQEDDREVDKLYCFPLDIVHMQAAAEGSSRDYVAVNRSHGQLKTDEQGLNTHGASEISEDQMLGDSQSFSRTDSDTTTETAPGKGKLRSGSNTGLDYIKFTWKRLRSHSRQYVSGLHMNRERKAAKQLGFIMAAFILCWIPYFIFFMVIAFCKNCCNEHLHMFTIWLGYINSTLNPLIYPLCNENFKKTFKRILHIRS
Experimental: as §1

[14] = molecular target: T13, Opiate mu (OP3, MOP) (Homo sapiens, UniProt P35372); assay: biochemical; design: MDS Pharma Lead Profiling screen, binding assays, per cent inhibition, duplicate
T13 construct: gene OPRM1
T13 sequence (P35372 whole entry): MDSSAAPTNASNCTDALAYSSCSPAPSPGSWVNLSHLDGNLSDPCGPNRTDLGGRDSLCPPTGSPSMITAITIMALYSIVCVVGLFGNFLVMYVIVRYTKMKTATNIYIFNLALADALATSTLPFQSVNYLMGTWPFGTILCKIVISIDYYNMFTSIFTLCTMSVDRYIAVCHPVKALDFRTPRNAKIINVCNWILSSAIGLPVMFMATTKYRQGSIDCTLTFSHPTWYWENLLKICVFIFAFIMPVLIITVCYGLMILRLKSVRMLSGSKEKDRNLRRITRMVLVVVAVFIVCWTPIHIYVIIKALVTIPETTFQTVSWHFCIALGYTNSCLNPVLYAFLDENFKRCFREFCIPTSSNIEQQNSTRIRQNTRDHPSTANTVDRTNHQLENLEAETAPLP
Experimental: as §1

[15] = molecular target: T14, Sigma 1 (Homo sapiens, UniProt Q99720); assay: biochemical; design: MDS Pharma Lead Profiling screen, binding assays, per cent inhibition, duplicate
T14 construct: gene SIGMAR1
T14 sequence (Q99720 whole entry): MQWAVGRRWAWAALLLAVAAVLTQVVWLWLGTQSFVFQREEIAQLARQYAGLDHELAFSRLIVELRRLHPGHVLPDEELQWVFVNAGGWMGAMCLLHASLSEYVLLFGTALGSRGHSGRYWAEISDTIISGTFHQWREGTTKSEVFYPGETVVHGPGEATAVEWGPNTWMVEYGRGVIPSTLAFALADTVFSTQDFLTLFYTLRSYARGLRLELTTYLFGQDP
Experimental: as §1

[16] = molecular target: T15, Histamine H3 (Homo sapiens, UniProt Q9Y5N1); assay: biochemical; design: MDS Pharma Lead Profiling screen, binding assays, per cent inhibition, duplicate
T15 construct: gene HRH3
Experimental: as §1

[17] = molecular target: T16, Opiate kappa (OP2, KOP) (Homo sapiens, UniProt P41145); assay: biochemical; design: MDS Pharma Lead Profiling screen, binding assays, per cent inhibition, duplicate
T16 construct: gene OPRK1
Experimental: as §1

[18] = molecular target: T17, Monoamine Oxidase MAO-B (Homo sapiens, UniProt P27338); assay: biochemical; design: MDS Pharma Lead Profiling + CYP450 screen, enzyme assays, per cent inhibition, duplicate
T17 construct: gene MAOB
T17 sequence (P27338 whole entry): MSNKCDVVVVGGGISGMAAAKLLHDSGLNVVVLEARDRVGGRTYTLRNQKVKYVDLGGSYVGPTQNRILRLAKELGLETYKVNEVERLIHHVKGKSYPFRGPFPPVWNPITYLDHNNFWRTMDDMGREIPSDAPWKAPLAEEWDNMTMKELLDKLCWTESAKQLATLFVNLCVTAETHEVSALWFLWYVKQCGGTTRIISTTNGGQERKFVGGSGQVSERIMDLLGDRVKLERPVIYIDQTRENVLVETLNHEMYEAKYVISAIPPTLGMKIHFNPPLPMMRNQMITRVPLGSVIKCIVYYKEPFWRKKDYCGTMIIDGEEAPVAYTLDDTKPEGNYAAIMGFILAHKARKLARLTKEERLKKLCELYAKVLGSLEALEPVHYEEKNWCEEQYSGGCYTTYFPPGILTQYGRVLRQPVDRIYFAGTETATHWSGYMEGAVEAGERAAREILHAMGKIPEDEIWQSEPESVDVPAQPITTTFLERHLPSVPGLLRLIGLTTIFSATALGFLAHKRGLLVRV
Experimental: as §1

[19] = molecular target: Peptidase, BACE1 (beta-Secretase) (Homo sapiens, UniProt P56817); assay: biochemical; design: MDS Pharma Lead Profiling + CYP450 screen, enzyme assays, per cent inhibition, duplicate
Experimental: as §1

[20] = molecular target: T18, Monoamine Oxidase MAO-A (Homo sapiens, UniProt P21397); assay: biochemical; design: MDS Pharma Lead Profiling + CYP450 screen, enzyme assays, per cent inhibition, duplicate
T18 construct: gene MAOA
Experimental: as §1

[21] = molecular target: T19, Histamine H2 receptor (Homo sapiens, UniProt P25021); assay: MDS Pharma Services binding screen at […]
T19 construct: gene HRH2

[22] = molecular target: T20, α1D-Adrenergic receptor (Homo sapiens, UniProt P25100); assay: MDS Pharma Services binding screen at […]
T20 construct: gene ADRA1D

T1 sequence (P43140 whole entry): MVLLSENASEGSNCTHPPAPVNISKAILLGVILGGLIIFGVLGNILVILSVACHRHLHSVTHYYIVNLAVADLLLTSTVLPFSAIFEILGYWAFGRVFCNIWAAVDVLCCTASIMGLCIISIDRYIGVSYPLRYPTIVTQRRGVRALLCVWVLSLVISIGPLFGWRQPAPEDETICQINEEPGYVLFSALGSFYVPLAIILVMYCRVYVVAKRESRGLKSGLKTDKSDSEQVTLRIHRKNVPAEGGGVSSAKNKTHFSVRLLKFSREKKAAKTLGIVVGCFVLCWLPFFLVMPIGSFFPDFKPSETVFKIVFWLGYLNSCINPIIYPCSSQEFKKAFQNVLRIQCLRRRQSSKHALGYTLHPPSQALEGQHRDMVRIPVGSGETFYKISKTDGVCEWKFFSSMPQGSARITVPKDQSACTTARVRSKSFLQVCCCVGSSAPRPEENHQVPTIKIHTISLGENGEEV

Cc1ccc2c(c1)c1c(n2CCc2ccc(C)nc2)CCN(C)C1 [Dimebon, 2,3,4,5-Tetrahydro-2,8-dimethyl-5-(2-(6-methyl-3-pyridyl)ethyl)-1H-pyrido(4,3-b)indole]
inhibition at 10 µM [1]: > 90%
inhibition at 10 µM [2]: 100%
inhibition at 10 µM [3]: 74%
inhibition at 10 µM [4]: -7%
inhibition at 10 µM [5]: -10%
inhibition at 10 µM [6]: -5%
inhibition at 10 µM [7]: 20%
inhibition at 10 µM [8]: 95%
inhibition at 10 µM [9]: 96%
inhibition at 10 µM [10]: 22%
inhibition at 10 µM [11]: -7%
inhibition at 10 µM [12]: 8%
inhibition at 10 µM [13]: 101%
inhibition at 10 µM [14]: 10%
inhibition at 10 µM [15]: 28%
inhibition at 10 µM [16]: -4%
inhibition at 10 µM [17]: 16%
inhibition at 10 µM [18]: 5%
inhibition at 10 µM [19]: -9%
inhibition at 10 µM [20]: 6%
inhibition at 10 µM [21]: > 90%
inhibition at 10 µM [22]: > 90%
